Tests used:
[1] = Absorption and fluorescence titration of the indicator with ZnCl2 in CH3CN; type: binding
Description: FIG. 3 is a graph depicting fluorescence intensity increase (F/F0 at 630 nm) of zinc(II) ion indicator (4) (3.0 μM), with increasing [ZnCl2]. The solid line is the fitting curve of F/F0 vs. [Zn^2+] based on a 1:1 binding isotherm equation. See Zhu, L.; Zhong, Z.; Anslyn, E. V. J. Am. Chem. Soc. 2005, 127, 4260-4269.
FIGS. 4A and 4B are graphs depicting (4A) Absorption spectra for the titration of zinc(II) ion indicator (4) (3.0 μM) with ZnCl2 (0-18 μM) in CH3CN, and (4B) Fluorescence spectral change of zinc(II) ion indicator (4) (3.0 μM) with different concentrations of ZnCl2 (0-18 μM) in CH3CN (λex 400 nm).
FIG. 5 is a graph depicting fluorescence spectral change of zinc(II) ion indicator (4) (2.5 μM) with different concentrations of ZnCl2 (0-16 μM) in CH3CN (λex=600 nm).
The syntheses of the separate FRET donor and acceptor systems (1-3) and indicators for zinc(II) (4, 5) are described in the examples. Absorption spectrum of zinc(II) ion indicator compound (4) in CH3CN consists of two bands over 300 nm (FIG. 4A). The band centered at 346 nm corresponds to the absorption of the bipy-containing FRET donor moiety, which we term the D band. The band centered at 600 nm corresponds to the NDI moiety which is termed the A band. Upon addition of increasing amount of ZnCl2, as a result of zinc(II) coordination at the bipy moiety, the charge-transfer D band undergoes a bathochromic shift from 346 nm to 370 nm. The A band, meanwhile, experiences a slight hypochromic shift.
The fluorescence titration profile of zinc(II) ion indicator compound (4) with ZnCl2 upon excitation at 400 nm is shown in FIG. 4B. […] This signal may have arisen from the direct excitation of the NDI component. Upon addition of increasing amount of ZnCl2 from 0-18 μM, the emission at 630 nm intensifies, and reaches saturation with 12-fold enhancement in integrated intensity (See Table 1 for spectroscopic data). […] These observations are consistent with the involvement of a zinc(II)-modulated intramolecular excitation energy transfer process. Furthermore, the differed sensitivity to excitation wavelength of zinc(II) ion indicator (4) offers an opportunity to correlate [Zn^2+] and fluorescence change ratiometrically. […]
Reagents and solvents were purchased from various commercial sources and used without further purification unless otherwise stated. […] Silica and alumina gel was flame-dried under vacuum to remove absorbed moisture before use. ^1H NMR spectra were recorded at 300 MHz on a Varian Mercury spectrometer. ^13C NMR spectra were recorded at 125 MHz, on a Bruker Avance spectrometer. […] Spectrophotometric and fluorometric titrations were conducted on a Varian Cary 100 Bio UV-Visible Spectrophotometer and a Varian Cary Eclipse Fluorescence Spectrophotometer, respectively, with a 1-cm standard quartz cell. […]

[2] = Fluorescence response to various metal ions (metal ion selectivity); details: indicator 3.0 μM, 1:9 water/CH3CN pH 7.2, λex 400 nm
Description: FIG. 8 is a chart depicting fluorescence spectroscopic responses of zinc(II) ion indicator (4) (3.0 μM, λex 400 nm) to various metal ions in 1:9 water/CH3CN mixture at pH 7.2 (30 mM of MOPS buffer). Clear bars represent intensity in the presence of various metal ions (perchlorate salt). Metal ion concentrations of Na^+, K^+, Ca^2+, Mg^2+ were 1.0 mM and for other ions 30 μM. Hatch marked bars represent the fluorescence following subsequent addition of Zn(ClO4)2 (30 μM).
The fluorescence dependence of zinc(II) ion indicator (4) on the identity of metal ion was evaluated (FIG. 8). […] The observed metal ion selectivity can be understood based on the Irving-Williams series and HSAB theory.

Q: What does the source list for `COCCCNc1cc2c3c(c(NCCOc4ccc(/C=C/c5ccc(-c6ccc(COCCOCCOC)cn6)nc5)cc4)cc4c3c1C(=O)N(CCCOC)C4=O)C(=O)N(CCCOC)C2=O` [Compound (4)]?
A: enhancement in integrated intensity of emission at 630 nm at saturation ([1]; CH3CN, ZnCl2 0-18 μM, λex 400 nm): 12 fold; D band absorption after bathochromic shift upon addition of ZnCl2 ([1]; CH3CN, increasing ZnCl2): 370 nm; fluorescence intensity on variation of zinc(II) concentration when NDI is directly excited ([1]; CH3CN, λex 600 nm): not affected much; Kd ([1]; indicator 3.0 μM, F/F0 at 630 nm vs [ZnCl2], fit to 1:1 binding isotherm, read-out: Dissociation constant Kd): 9.1 µM; fluorescence response to cadmium(II) ([2]; 30 μM metal ion): acts similarly to zinc(II) in resulting strong fluorescence from NDI; fluorescence response to iron(II) and copper(II) ([2]; 30 μM metal ion): quench fluorescence; fluorescence response to manganese(II) and lead(II) ([2]; 30 μM metal ion): fail to alter the fluorescence; fluorescence response to alkali and alkaline earth metal ions ([2]; Na+, K+, Ca2+, Mg2+ 1.0 mM): do not elicit a fluorescence response

Reference: patent US20130071936A1, “FRET-BASED ZINC(II) ION INDICATOR” (The Florida State University Research Foundation, Inc., priority 2011, published 2013)
